Laboratory results taken from patent US8895504B2, “Amylin derivatives” (priority 2008, dated 2014).
*1 amine or outer side, *2 acyl side, *3 side chain or, on linkers, in order; H or OH if unused. Where a SMILES comes first, the peptide text is derived from it. Bridges are numbered along the chain shown (N, C = ends). The star is where a group is joined. C20 diacid = O=C(O)CCCCCCCCCCCCCCCCCCC(=O)*; γGlu = O=C(O)[C@H](CCC(=O)[*:2])N[*:1]; Trx = NC[C@H]1CC[C@H](C(=O)O)CC1; AEEA = NCCOCCOCC(=O)O

Each compound was assayed against T1, Amylin 3(a) receptor (human calcitonin receptor (CTa) and RAMP-3) (Homo sapiens, UniProt O60896+P30988) (assay: Luciferase assay (III), BHK Amylin 3(a)//CRE-luc cells). Settings: BHK cells with Amylin 3(a) receptor and CRE luciferase reporter, 4 hours incubation; read-out: Potency Luciferase.
T1 construct: expressed in transfected cells; host or cells: BHK570 cells, stably transfected with a CRE-luciferase reporter
T1 sequence (O60896 24-148): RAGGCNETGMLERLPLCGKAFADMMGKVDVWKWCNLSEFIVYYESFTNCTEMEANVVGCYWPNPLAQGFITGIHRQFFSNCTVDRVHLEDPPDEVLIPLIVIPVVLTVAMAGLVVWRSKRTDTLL
T1 sequence (P30988 25-474): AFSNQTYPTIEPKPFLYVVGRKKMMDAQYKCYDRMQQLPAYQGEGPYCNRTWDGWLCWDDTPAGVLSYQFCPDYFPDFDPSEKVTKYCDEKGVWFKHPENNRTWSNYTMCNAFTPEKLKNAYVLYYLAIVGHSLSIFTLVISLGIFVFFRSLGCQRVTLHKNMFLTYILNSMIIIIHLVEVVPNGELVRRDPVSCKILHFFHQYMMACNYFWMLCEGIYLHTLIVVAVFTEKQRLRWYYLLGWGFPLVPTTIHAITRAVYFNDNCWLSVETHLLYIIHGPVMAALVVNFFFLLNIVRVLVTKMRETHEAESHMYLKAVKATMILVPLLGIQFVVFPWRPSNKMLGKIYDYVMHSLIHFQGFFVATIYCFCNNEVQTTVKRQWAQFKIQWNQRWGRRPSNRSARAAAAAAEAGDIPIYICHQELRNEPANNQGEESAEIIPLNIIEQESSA
Format: cell-based
How it was run: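 Read-out is CRE-driven luciferase luminescence, taken 30 min after LucLite addition at room temperature. Compounds were incubated 4 h at 37° C in assay medium (10% FBS, 10 mM Hepes, pH 7,4). The cell line is BHK570 co-transfected with human calcitonin receptor CTa and RAMP-3, seeded overnight before use.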

| SMILES | EC50 |
| --- | --- |
| CC[C@H](C)[C@H](NC(=O)[C@@H]1CCCN1C(=O)CNC(=O)[C@H](Cc1ccccc1)NC(=O)[C@H](CC(N)=O)NC(=O)[C@H](CC(N)=O)NC(=O)[C@H](CO)NC(=O)[C@H](CO)NC(=O)[C@H](Cc1c[nH]cn1)NC(=O)CNC(=O)[C@H](CC(C)C)NC(=O)[C@H](Cc1ccccc1)NC(=O)[C@H](CC(N)=O)NC(=O)[C@H](C)NC(=O)[C@H](CC(C)C)NC(=O)[C@H](CCCNC(=N)N)NC(=O)[C@H](CCC(N)=O)NC(=O)[C@@H](NC(=O)[C@H](C)NC(=O)[C@@H]1CSSC[C@H](NC(=O)[C@H](CCCCN)NC(=O)[C@H](CCCNC(=N)N)NC(=O)CC[C@H](NC(=O)CCCCCCCCCCCCCCCCCCC(=O)O)C(=O)O)C(=O)N[C@@H](CC(N)=O)C(=O)N[C@@H]([C@@H](C)O)C(=O)N[C@@H](C)C(=O)N[C@@H]([C@@H](C)O)C(=O)N1)[C@@H](C)O)C(=O)N[C@@H](CC(C)C)C(=O)N1CCC[C@H]1C(=O)N1CCC[C@H]1C(=O)N[C@H](C(=O)N[C@@H](CC(N)=O)C(=O)N[C@H](C(=O)NCC(=O)N[C@@H](CO)C(=O)N[C@@H](CC(N)=O)C(=O)N[C@H](C(=O)N[C@@H](Cc1ccc(O)cc1)C(N)=O)[C@@H](C)O)C(C)C)[C@@H](C)O [Example 18, N-alpha-[(S)-4-Carboxy-4-(19-carboxynonadecanoylamino)butyryl]-Arg-[Gly17]-pramlintide] ({C20 diacid-γGlu}-RKCNTATCATQRLANFLGHSSNNFGPILPPTNVGSNTY-NH2; disulfide 3-8) | 0.1 nM |
| CC[C@H](C)[C@H](NC(=O)[C@@H]1CCCN1C(=O)CNC(=O)[C@H](Cc1ccccc1)NC(=O)[C@H](CC(N)=O)NC(=O)[C@H](CC(N)=O)NC(=O)[C@H](CO)NC(=O)[C@H](CO)NC(=O)[C@H](Cc1c[nH]cn1)NC(=O)[C@H](Cc1c[nH]cn1)NC(=O)[C@H](CC(C)C)NC(=O)[C@H](Cc1ccccc1)NC(=O)[C@H](CC(N)=O)NC(=O)[C@H](C)NC(=O)[C@H](CC(C)C)NC(=O)[C@H](CCCNC(=N)N)NC(=O)[C@H](CCC(N)=O)NC(=O)[C@@H](NC(=O)[C@H](C)NC(=O)[C@@H]1CSSC[C@H](NC(=O)[C@H](CCCNC(=N)N)NC(=O)CC[C@H](NC(=O)CCCCCCCCCCCCCCCCCCC(=O)O)C(=O)O)C(=O)N[C@@H](CC(N)=O)C(=O)N[C@@H]([C@@H](C)O)C(=O)N[C@@H](C)C(=O)N[C@@H]([C@@H](C)O)C(=O)N1)[C@@H](C)O)C(=O)N[C@@H](CC(C)C)C(=O)N1CCC[C@H]1C(=O)N1CCC[C@H]1C(=O)N[C@H](C(=O)N[C@@H](CC(N)=O)C(=O)N[C@H](C(=O)NCC(=O)N[C@@H](CO)C(=O)N[C@@H](CC(N)=O)C(=O)N[C@H](C(=O)N[C@@H](Cc1ccc(O)cc1)C(N)=O)[C@@H](C)O)C(C)C)[C@@H](C)O [Example 6, N-alpha-[(S)-4-Carboxy-4-(19-carboxynonadecanoylamino)butyryl]-[Arg1,His17]-pramlintide] ({C20 diacid-γGlu}-RCNTATCATQRLANFLHHSSNNFGPILPPTNVGSNTY-NH2; disulfide 2-7) | 0.3 nM |
| CC[C@H](C)[C@H](NC(=O)[C@@H]1CCCN1C(=O)CNC(=O)[C@H](Cc1ccccc1)NC(=O)[C@H](CC(N)=O)NC(=O)[C@H](CC(N)=O)NC(=O)[C@H](CO)NC(=O)[C@H](CO)NC(=O)[C@H](Cc1c[nH]cn1)NC(=O)[C@@H]1CCCN1C(=O)[C@H](CC(C)C)NC(=O)[C@H](Cc1ccccc1)NC(=O)[C@H](CC(N)=O)NC(=O)[C@H](C)NC(=O)[C@H](CC(C)C)NC(=O)[C@H](CCCNC(=N)N)NC(=O)[C@H](CCC(N)=O)NC(=O)[C@@H](NC(=O)[C@H](C)NC(=O)[C@@H]1CSSC[C@H](NC(=O)[C@H](CCCCN)NC(=O)[C@H](CCCNC(=N)N)NC(=O)CC[C@H](NC(=O)CCCCCCCCCCCCCCCCCCC(=O)O)C(=O)O)C(=O)N[C@@H](CC(N)=O)C(=O)N[C@@H]([C@@H](C)O)C(=O)N[C@@H](C)C(=O)N[C@@H]([C@@H](C)O)C(=O)N1)[C@@H](C)O)C(=O)N[C@@H](CC(C)C)C(=O)N1CCC[C@H]1C(=O)N1CCC[C@H]1C(=O)N[C@H](C(=O)N[C@@H](CC(N)=O)C(=O)N[C@H](C(=O)NCC(=O)N[C@@H](CO)C(=O)N[C@@H](CC(N)=O)C(=O)N[C@H](C(=O)N[C@@H](Cc1ccc(O)cc1)C(N)=O)[C@@H](C)O)C(C)C)[C@@H](C)O [Example 21, N-alpha-[(S)-4-Carboxy-4-(19-carboxynonadecanoylamino)butyryl]-Arg-[Pro17]-pramlintide] ({C20 diacid-γGlu}-RKCNTATCATQRLANFLPHSSNNFGPILPPTNVGSNTY-NH2; disulfide 3-8) | 2 nM |
| CC[C@H](C)[C@H](NC(=O)[C@@H]1CCCN1C(=O)CNC(=O)[C@H](Cc1ccccc1)NC(=O)[C@H](CC(N)=O)NC(=O)[C@H](CC(N)=O)NC(=O)[C@H](CO)NC(=O)[C@H](CO)NC(=O)[C@H](Cc1c[nH]cn1)NC(=O)[C@H](CCCNC(=N)N)NC(=O)[C@H](CC(C)C)NC(=O)[C@H](Cc1ccccc1)NC(=O)[C@H](CC(N)=O)NC(=O)[C@H](C)NC(=O)[C@H](CC(C)C)NC(=O)[C@H](CCCNC(=N)N)NC(=O)[C@H](CCC(N)=O)NC(=O)[C@@H](NC(=O)[C@H](C)NC(=O)[C@@H]1CSSC[C@H](NC(=O)[C@H](Cc2c[nH]cn2)NC(=O)[C@H](Cc2c[nH]cn2)NC(=O)CC[C@H](NC(=O)CCCCCCCCCCCCCCCCCCC(=O)O)C(=O)O)C(=O)N[C@@H](CC(N)=O)C(=O)N[C@@H]([C@@H](C)O)C(=O)N[C@@H](C)C(=O)N[C@@H]([C@@H](C)O)C(=O)N1)[C@@H](C)O)C(=O)N[C@@H](CC(C)C)C(=O)N1CCC[C@H]1C(=O)N1CCC[C@H]1C(=O)N[C@H](C(=O)N[C@@H](CC(N)=O)C(=O)N[C@H](C(=O)NCC(=O)N[C@@H](CO)C(=O)N[C@@H](CC(N)=O)C(=O)N[C@H](C(=O)N[C@@H](Cc1ccc(O)cc1)C(N)=O)[C@@H](C)O)C(C)C)[C@@H](C)O [Example 35, N-alpha-[(S)-4-Carboxy-4-(19-carboxynonadecanoylamino)butyryl]-His-[His1,Arg17]-pramlintide] ({C20 diacid-γGlu}-HHCNTATCATQRLANFLRHSSNNFGPILPPTNVGSNTY-NH2; disulfide 3-8) | 0.1 nM |
| CC[C@H](C)[C@H](NC(=O)[C@@H]1CCCN1C(=O)CNC(=O)[C@H](Cc1ccccc1)NC(=O)[C@H](CC(N)=O)NC(=O)[C@H](CC(N)=O)NC(=O)[C@H](CO)NC(=O)[C@H](CO)NC(=O)[C@H](Cc1c[nH]cn1)NC(=O)[C@H](CCCNC(=N)N)NC(=O)[C@H](CC(C)C)NC(=O)[C@H](Cc1ccccc1)NC(=O)[C@H](CC(N)=O)NC(=O)[C@H](C)NC(=O)[C@H](CC(C)C)NC(=O)[C@H](CCCNC(=N)N)NC(=O)[C@H](CCC(N)=O)NC(=O)[C@@H](NC(=O)[C@H](C)NC(=O)[C@@H]1CSSC[C@H](NC(=O)[C@H](CCCNC(=N)N)NC(=O)[C@H](Cc2c[nH]cn2)NC(=O)[C@H](Cc2c[nH]cn2)NC(=O)COCCOCCNC(=O)CC[C@H](NC(=O)CCCCCCCCCCCCCCCCCCC(=O)O)C(=O)O)C(=O)N[C@@H](CC(N)=O)C(=O)N[C@@H]([C@@H](C)O)C(=O)N[C@@H](C)C(=O)N[C@@H]([C@@H](C)O)C(=O)N1)[C@@H](C)O)C(=O)N[C@@H](CC(C)C)C(=O)N1CCC[C@H]1C(=O)N1CCC[C@H]1C(=O)N[C@H](C(=O)N[C@@H](CC(N)=O)C(=O)N[C@H](C(=O)NCC(=O)N[C@@H](CO)C(=O)N[C@@H](CC(N)=O)C(=O)N[C@H](C(=O)N[C@@H](Cc1ccc(O)cc1)C(N)=O)[C@@H](C)O)C(C)C)[C@@H](C)O [Example 57, N-alpha-[2-(2-{2-[4-(S)-Carboxy-4-(19-carboxynonadecanoylamino)butyrylamino]ethoxy}ethoxy)acetyl]-His-His-[Arg1,Arg17]-pramlintide] ({C20 diacid-γGlu-AEEA}-HHRCNTATCATQRLANFLRHSSNNFGPILPPTNVGSNTY-NH2; disulfide 4-9) | 0.3 nM |

Same assay, conditions: Potency Luciferase, BHK cells with Amylin 3(a) receptor and CRE luciferase reporter, 4 hours incubation

| SMILES | EC50 |
| --- | --- |
| CC[C@H](C)[C@H](NC(=O)[C@@H]1CCCN1C(=O)CNC(=O)[C@H](Cc1ccccc1)NC(=O)[C@H](CC(N)=O)NC(=O)[C@H](CC(N)=O)NC(=O)[C@H](CO)NC(=O)[C@H](CO)NC(=O)[C@H](Cc1c[nH]cn1)NC(=O)[C@H](Cc1c[nH]cn1)NC(=O)[C@H](CC(C)C)NC(=O)[C@H](Cc1ccccc1)NC(=O)[C@H](CC(N)=O)NC(=O)[C@H](C)NC(=O)[C@H](CC(C)C)NC(=O)[C@H](CCCNC(=N)N)NC(=O)[C@H](CCC(N)=O)NC(=O)[C@@H](NC(=O)[C@H](C)NC(=O)[C@@H]1CSSC[C@H](NC(=O)[C@H](Cc2c[nH]cn2)NC(=O)CC[C@H](NC(=O)[C@H]2CC[C@H](CNC(=O)CCCCCCCCCCCCCCCCCCC(=O)O)CC2)C(=O)O)C(=O)N[C@@H](CC(N)=O)C(=O)N[C@@H]([C@@H](C)O)C(=O)N[C@@H](C)C(=O)N[C@@H]([C@@H](C)O)C(=O)N1)[C@@H](C)O)C(=O)N[C@@H](CC(C)C)C(=O)N1CCC[C@H]1C(=O)N1CCC[C@H]1C(=O)N[C@H](C(=O)N[C@@H](CC(N)=O)C(=O)N[C@H](C(=O)NCC(=O)N[C@@H](CO)C(=O)N[C@@H](CC(N)=O)C(=O)N[C@H](C(=O)N[C@@H](Cc1ccc(O)cc1)C(N)=O)[C@@H](C)O)C(C)C)[C@@H](C)O [Example 33, N-alpha-[4-Carboxy-4-({4-[(19-carboxynonadecanoylamino)methyl]transcyclohexanecarbonyl}amino)butyryl]-[His1,His17]-pramlintide] ({C20 diacid-Trx-γGlu}-HCNTATCATQRLANFLHHSSNNFGPILPPTNVGSNTY-NH2; disulfide 2-7; C-terminus assumed) | 0.1 nM |
